Assay results published in patent publication US6054591A, “Lymph-absorbable aryl substituted imidazole derivatives” (Shionogi & Co., Ltd., priority 1996, dated 2000).
In brackets after ≈: the same amount, converted by molar mass.

System: HIV (HTLV-IIIB strain)
Experiment: Infection inhibitory activity (anti-HIV activity, MTT assay in MT-4 cells)
Type: cell-based
Conditions: Human immunodeficiency virus 1, IIIB, MT4, 120 h
Method: Infection inhibitory activity of the compound
The anti-HIV activity of the representative compounds prepared in the above examples was assayed by the following procedures.
Human T cell line MOLT-4 clone 8 persistently infected by HIV (HTLV-IIIB strain) was cultured in an RPMI-1640 medium supplemented with 10% fetal calf serum, the culture supernatant was filtered, the titer of virus was determined on the filtrate, and the culture supernatant was stored at -80° C. On the other hand, the test compound was diluted with the above culture medium to predetermined concentration range 1 μg/ml to 1 ng/ml and distributed in 50 μl aliquots into a 96-well microtiter plate. Then, a suspension of MT-4 cells was added in 100 μl aliquots (3.5×10^4 cells per well) and then 50 μl (60 pfu (plaque forming units)) per well of the above HIV-containing supernatant diluted with the above culture medium each was added.
The plate was incubated in a CO2 incubator at 37° C. for 5 days. Then, 30 μl/well of 3-(4,5-dimethylthiazol-2-yl)-2,5-[…] (MTT) and 5 mg/ml PBS was added and the incubation was further continued for 1 hour. The surviving cells reducing MTT yield precipitation of formazan. Therefore, 150 μl portions of the culture supernatant were removed from all wells and, instead, 150 μl of a solution (10% Triton X-100 and 0.4% (v/v) HCl added isopropanol) was added. The plate was shaken on a plate mixer to dissolve the formazan. The OD of formazan was measured with a microreader at 560 nm and 690 nm (reference wavelength) and the result was compared with that of control. The cytotoxic effect for the virus was expressed as EC50.

SMILES	EC50
CC(C)c1nc(COC(=O)NC(=O)Oc2cccc3ccccc23)n(Cc2ccncc2)c1Sc1cc(Cl)cc(Cl)c1 [Compound 104, 5-(3,5-Dichlorophenylthio)-4-isopropyl-1-(4-pyridylmethyl)-1H-imidazol-2-ylmethyl 1-naphthyl iminodicaboxylate]	< 8 ng/mL
CC(C)c1nc(COC(=O)NC(=O)Oc2ccc(-c3ccccc3)cc2)n(Cc2ccncc2)c1Sc1cc(Cl)cc(Cl)c1 [Compound 103, 5-(3,5-Dichlorophenylthio)-4-isopropyl-1-(4-pyridylmethyl)-1H-imidazol-2-ylmethyl 4-biphenyl iminodicaboxylate]	8 ng/mL (≈ 0.0124 µM)

Same assay, conditions: Human immunodeficiency virus 1, MT4, 120 h; MT-4 cells, HIV HTLV-IIIB, 5 days at 37° C., MTT; read-out: EC50

EC50	SMILES
8 ng/mL (≈ 0.0163 µM)	Cc1nc(C(C)C)c(Sc2cc(Cl)cc(Cl)c2)n1COCCOCOC(=O)C(C)(C)C [Compound 77, 2-[5-(3,5-Dichlorophenylthio)-4-isopropyl-2-methyl-imidazol-1-ylmethoxy]ethyl 2,2-dimethylpropionyloxymethyl ether]
8 ng/mL (≈ 0.0124 µM)	Cc1nc(C(C)C)c(Sc2cc(Cl)cc(Cl)c2)n1COCCOC(=O)CCCCCCCCCCCCCCC(=O)O [Compound 75, Mono-{2-[5-(3,5-dichlorophenylthio)-4-isopropyl-2-methyl-imidazol-1-ylmethoxy]ethyl} hexadecanedioate]
8 to 16 ng/mL (≈ 0.0155 to 0.0311 µM)	CCCCCCCC(=O)NC(=O)OCc1nc(C(C)C)c(Sc2cc(Cl)cc(Cl)c2)n1CC [Compound 82, 5-(3,5-Dichlorophenylthio)-1-ethyl-4-isopropyl-1H-imidazol-2-ylmethyl octanoylcarbamate]
< 8 ng/mL	CC(=O)NC(=O)OCc1nc(C(C)C)c(Sc2cc(Cl)cc(Cl)c2)n1Cc1ccncc1 [Compound 90, 5-(3,5-Dichlorophenylthio)-4-isopropyl-1-(4-pyridylmethyl)-1H-imidazol-2-ylmethyl acetylcarbamate]
8 ng/mL	Cc1cc(C)cc(Sc2c(C(C)C)nc(C)n2COCCOC(=O)CCC(=O)O)c1 [Compound 68, Mono-{2-[5-(3,5-dimethylphenylthio)-4-isopropyl-2-methyl-imidazol-1-yl]methoxyethyl}succinate]
8 ng/mL (≈ 0.017 µM)	CCCCCCCC(=O)OCc1nc(C(C)C)c(Sc2cc(Cl)cc(Cl)c2)n1CC [Compound 108, 5-(3,5-Dichlorophenylthio)-1-ethyl-4-isopropyl-1H-imidazol-2-ylmethyl octanoate]
8 to 16 ng/mL (≈ 0.0139 to 0.0277 µM)	CCCCCCCC(=O)NC(=O)OCc1nc(C(C)C)c(Sc2cc(Cl)cc(Cl)c2)n1Cc1ccncc1 [Compound 91, 5-(3,5-Dichlorophenylthio)-4-isopropyl-1-(4-pyridylmethyl)-1H-imidazol-2-ylmethyl octanoylcarbamate]
8 ng/mL (≈ 0.0152 µM)	CCn1c(COC(=O)NC(=O)c2ccc(Cl)cc2)nc(C(C)C)c1Sc1cc(Cl)cc(Cl)c1 [Compound 86, 5-(3,5-Dichlorophenylthio)-1-ethyl-4-isopropyl-1H-imidazol-2-ylmethyl 4-chlorobenzoylcarbamate]
8 ng/mL (≈ 0.0143 µM)	CCn1c(COC(=O)NC(=O)c2cc(Cl)cc(Cl)c2)nc(C(C)C)c1Sc1cc(Cl)cc(Cl)c1 [Compound 87, 5-(3,5-Dichlorophenylthio)-1-ethyl-4-isopropyl-1H-imidazol-2-ylmethyl 3,5-dichlorobenzoylcarbamate]
8 ng/mL	Cc1nc(C(C)C)c(Sc2cc(Cl)cc(Cl)c2)n1COCCOC(=O)CCC(=O)O [Compound 76, Mono-{2-[5-(3,5-dichlorophenylthio)-4-isopropyl-2-methyl-imidazol-1-ylmethoxy]ethyl succinate]
< 8 ng/mL	CCCCCCCCCC(=O)NC(=O)OCc1nc(C(C)C)c(Sc2cc(Cl)cc(Cl)c2)n1Cc1ccncc1 [Compound 92, 5-(3,5-Dichlorophenylthio)-4-isopropyl-1-(4-pyridylmethyl)-1H-imidazol-2-ylmethyl decanoylcarbamate]
8 ng/mL (≈ 0.0165 µM)	Cc1nc(C(C)C)c(Sc2cc(Cl)cc(Cl)c2)n1COCCOC1=CCCCCCC1 [Compound 11, 1-[2-(Cycloocten-1-yloxy)ethoxymethyl]-5-(3,5-dichlorophenylthio)-4-isopropyl-2-methyl-1H-imidazole]
2.5 to 5 ng/mL (≈ 0.00535 to 0.0107 µM)	CCn1c(CCOC2=CCCCCCC2)nc(C(C)C)c1Sc1cc(Cl)cc(Cl)c1 [Compound 59]
8 to 16 ng/mL (≈ 0.016 to 0.032 µM)	CCCCCCCCCC(=O)OCc1nc(C(C)C)c(Sc2cc(Cl)cc(Cl)c2)n1CC [Compound 109, 5-(3,5-Dichlorophenylthio)-1-ethyl-4-isopropyl-1H-imidazol-2-ylmethyl decanoate]
3 to 5 ng/mL (≈ 0.00545 to 0.00908 µM)	CC(C)c1nc(COC(=O)NCN2CCOCC2)n(Cc2ccncc2)c1Sc1cc(Cl)cc(Cl)c1 [Compound 113, 5-(3,5-Dichlorophenylthio)-4-isopropyl-1-(4-pyridylmethyl)-1H-imidazol-2-ylmethyl morpholinomethylcarbamate]
16 ng/mL (≈ 0.0483 µM)	CC(C)c1nc(CO)n(C)c1Sc1cc(Cl)cc(Cl)c1 [Compound 14, 5-(3,5-dichlorophenylthio)-4-isopropyl-1-methyl-2-hydroxymethyl-1H-imidazole]
2 ng/mL (≈ 0.00557 µM)	CCn1c(CCO)nc(C(C)C)c1Sc1cc(Cl)cc(Cl)c1 [Compound 54]
8 ng/mL (≈ 0.0239 µM)	Cc1cc(C)cc(Sc2c(C(C)C)nc(C)n2COCCO)c1 [Compound 1, 5-(3,5-dimethylphenylthio)-4-isopropyl-1-(2-hydroxyethoxymethyl)-2-methyl-1H-imidazole]
3 ng/mL (≈ 0.00506 µM)	CCCCN(CCCC)CNC(=O)OCc1nc(C(C)C)c(Sc2cc(Cl)cc(Cl)c2)n1Cc1ccncc1 [Compound 112, 5-(3,5-Dichlorophenylthio)-4-isopropyl-1-(4-pyridylmethyl)-1H-imidazol-2-ylmethyl di-n-butylaminomethylcarbamate]
1 ng/mL (≈ 0.00232 µM)	CCn1c(COC(=O)NC(C)=O)nc(C(C)C)c1Sc1cc(Cl)cc(Cl)c1 [Compound 80, 5-(3,5-Dichlorophenylthio)-1-ethyl-4-isopropyl-1H-imidazol-2-ylmethyl acetylcarbamate]
3 to 5 ng/mL (≈ 0.00454 to 0.00757 µM)	CC(C)c1nc(COC(=O)NCN(Cc2ccccc2)Cc2ccccc2)n(Cc2ccncc2)c1Sc1cc(Cl)cc(Cl)c1 [Compound 114, 5-(3,5-Dichlorophenylthio)-4-isopropyl-1-(4-pyridylmethyl)-1H-imidazol-2-ylmethyl dibenzylaminomethylcarbamate]
4 ng/mL (≈ 0.0116 µM)	CCn1c(CO)nc(C(C)C)c1Sc1cc(Cl)cc(Cl)c1 [Compound 19, 2-hydroxymethyl-5-(3,5-dichlorophenylthio)-4-isopropyl-1-ethyl-1H-imidazole]
5 ng/mL (≈ 0.0133 µM)	Cc1nc(C(C)C)c(Sc2cc(Cl)cc(Cl)c2)n1COCCO [Compound 8, 5-(3,5-Dichlorophenylthio)-4-isopropyl-1-[2-hydroxyethoxymethyl]-2-methyl-1H-imidazole]

SMILES	EC50
CC(C)c1nc(COC(N)=O)n(Cc2ccncc2)c1Sc1cc(Cl)cc(Cl)c1 [Compound 111, 5-(3,5-dichlorophenylthio)-4-isopropyl-1-(4-pyridylmethyl)-1H-imidazol-2-ylmethyl carbamate]	0.9 ng/mL (≈ 0.00199 µM)
